# Molecular target: T1, SLCO1A2 (Homo sapiens, UniProt P46721)
# T1 sequence (P46721 1-670): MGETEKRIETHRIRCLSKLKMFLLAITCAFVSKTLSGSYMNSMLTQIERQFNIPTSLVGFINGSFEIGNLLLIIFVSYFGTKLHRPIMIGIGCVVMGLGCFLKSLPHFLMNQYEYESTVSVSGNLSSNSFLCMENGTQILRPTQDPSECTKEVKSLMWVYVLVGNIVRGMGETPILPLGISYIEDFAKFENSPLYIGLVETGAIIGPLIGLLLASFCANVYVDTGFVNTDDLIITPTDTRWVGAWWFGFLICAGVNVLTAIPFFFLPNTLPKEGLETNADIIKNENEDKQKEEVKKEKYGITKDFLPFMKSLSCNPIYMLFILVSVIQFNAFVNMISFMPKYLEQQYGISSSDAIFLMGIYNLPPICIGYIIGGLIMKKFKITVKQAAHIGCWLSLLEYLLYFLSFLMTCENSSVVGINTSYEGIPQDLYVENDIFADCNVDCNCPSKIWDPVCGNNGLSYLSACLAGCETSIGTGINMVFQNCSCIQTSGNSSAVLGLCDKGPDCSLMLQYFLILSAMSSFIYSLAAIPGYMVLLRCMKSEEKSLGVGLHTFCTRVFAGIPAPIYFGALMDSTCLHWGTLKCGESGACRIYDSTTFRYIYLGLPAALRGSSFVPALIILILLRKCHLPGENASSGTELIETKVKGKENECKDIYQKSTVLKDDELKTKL
# Assay: Uptake by cells ectopically expressing SLCO1A2 (in utero electroporation or AAV8) in live mice
# Assay type: in vivo, mouse
# Set-up: P2A:EGFP (AAV8 construct only; EGFP is separated at P2A) (C, cleaved yes); FLAG (in utero electroporation plasmid only); host or cells: cortical neurons of live mice (AAV8 subarachnoid infusion or in utero electroporation)
# Settings: topical cortical administration (50 μM where stated)
# Description: IUE is performed at E14 or E15 as previously done. Briefly, timed pregnant mice are anaesthetized with ketamine/xylazine. The abdominal region is shaved, sterilized and a 3 cm midline incision is made in the skin and abdominal muscle. The uterine horns are exposed, and the lateral ventricle of each embryo is pressure injected (Picospritzer II, General Valve) with plasmid DNA (~[…] volume per embryo) at a concentration of […] followed by electroporation with tweezertrodes (50 V, 4-50 ms pulses with I s pulse interval. BTX Harvard Apparatus). The embryos are placed back in the mother womb, and the muscle and skin are sutured. Electroporated pups are aged to postnatal day 30. Imaging is performed through a craniotomy over the transfected hemisphere following dye labeling.
# The Adeno-associated virus (AAV) for expression of SLCO1A2 was custom-made (VectorBuilders). Briefly, The AAV8 virus carrying the pAAV-CAG>hSLCO1A2:P2A:EGFP construct was produced by cloning the hSLCO1A2 gene variant downstream of the CAG promoter in the pAAV8 expression vector. A P2A sequence was inserted to link the hSLCO1A2 gene with the EGFP coding sequence. The constructed vector was transfected into HEK293 cells, and the virus produced was harvested and ultra-purified for a final titer >10^13 GC/mL. AAV virus were injected into the mouse subarachnoid space using a previously described method. Briefly, mice were anesthetized with ketamine-xylazine. A skull window, approximately 1 mm in diameter, was created using a high-speed drill at coordinates 6 mm anteroposterior and 3 mm mediolateral from bregma. Subsequently, a 30-gauge needle was carefully used to lift a small piece of thinned skull, exposing the underlying dura. The stock solutions of AAV were diluted in fresh sterile phosphate-buffered saline (PBS) solution (1:20, v/v) at room temperature, then kept on ice and adjusted to a titer of 10^12 GC/mL. The AAV solutions were loaded into a Tygon tube, connected to a polypropylene tip with an outer diameter of 70 μm, which was further attached to a programmable syringe pump with a Hamilton syringe. […]
Compound,uptake by neurons ectopically expressing SLCO1A2,uptake by neurons ectopically expressing SLCO1A2 (listed as Colchicine-eEDITS),uptake by neurons ectopically expressing SLCO1A2 (listed as Colchicine-eEDiTS)
"O=S(=O)([O-])c1cc(S(=O)(=O)O)ccc1C1=c2cc3c4c(c2Oc2cc(Br)ccc21)CCC[N+]=4CCC3 [Compound 1, 2-(12-bromo-1,2,3,5,6,7-hexahydrochromeno[2,3-f]pyrido[3,2,1-ij]quinolin-4-ium-9-yl)-5-sulfobenzenesulfonate]",only those cells that express SLCO1A2 or SLCO1A4 (as evidenced by the GFP fluorescence (green)) take up compound 1,,
"COc1cc2c(c(OC)c1OC)-c1ccc(OC)c(=O)cc1C(NS(=O)(=O)c1ccc(-c3c4ccc(N(C)C)cc4[o+]c4cc(N(C)C)ccc34)c(S(=O)(=O)[O-])c1)CC2 (stereo not drawn) [Compound 47, 2-(3,6-bis(dimethylamino)xanthylium-9-yl)-5-(N-(1,2,3,10-tetramethoxy-9-oxo-5,6,7,9-tetrahydrobenzo[a]heptalen-7-yl)sulfamoyl)benzenesulfonate]",,robust uptake by cells expressing SLCO1A2,marked uptake
